Four molecules from patent publication US12214012B2, “Combined preparations for the treatment of cancer” (IMMUTEP S.A.S., priority 2013, dated 2025) can be followed below.

For assay [1], the system named is colorectal adenocarcinoma cell line CT26. The assay can be described thus: Murine syngeneic skin tumour model, CT26 (Example 1). The format is in vivo. The following applies: CT26 s.c. in BALB/c mice; IMP321 50 μg s.c. D11-D28; Topotecan 2.5 mg/kg i.p. D10, D13, D17; FIG. 1. How it is done: A murine syngeneic skin tumour model was established using the colorectal adenocarcinoma cell line CT26.
One quarter of the minimum tumorigenic dose (MTD) of tumour cells (0.5×10^5 cells) was implanted by subcutaneous (s.c.) injection in the right flank of four groups of BALB/c mice (5 weeks old) at Day 0. The mice were injected with phosphate buffered saline (PBS) (Group 1 mice), the LAG-3 derivative IMP321 (Group 2 mice), IMP321 and Topotecan (Group 3 mice), or Topotecan alone (Group 4 mice) according to the following schedule: • Group 1 (8 mice): negative control: PBS s.c. injection at D11, D14, D18, D21, D25 and D28; • Group 2 (7 mice): IMP321 s.c. injection (50 μg, 1.9 mg/ml) at D11, D14, D18, D21, D25 and D28; • Group 3 (8 mice): IMP321 s.c. injection (50 μg, 1.9 mg/ml) at D11, D14, D18, D21, D25 and D28, plus Topotecan i.p. injection (45 μg, 2.5 mg/kg) at D10, D13 and D17; • Group 4 (8 mice): Topotecan i.p. injection (45 μg, 2.5 mg/kg) at D10, D13 and D17.
Tumour growth was monitored twice a week by measuring two perpendicular tumour diameters using calipers. Tumour size means the cross-sectional area in mm^2.

In assay [2] the test system is lymphoma cell line EL4. Kind of assay: Murine syngeneic skin tumour model, EL4, carboplatin and oxaliplatin (Example 3). The format is in vivo. The note with it: EL4 s.c. in C57Bl/6 mice; IMP321 50 μg s.c. D7-D25; Carboplatin 16 mg/kg i.p. D6, D10, D13, D17; Oxaliplatin 3 mg/kg i.p. D6, D10; FIG. 3A/3B. As for the experimental part:
(§1) A murine syngeneic skin tumour model was established using the lymphoma cell line EL4.
The minimum tumorigenic dose (MTD) of tumour cells (5×10^5 cells) was implanted by s.c. injection in the right flank of C57Bl/6 mice (5 weeks old) at Day 0. The mice were injected with phosphate buffered saline (PBS) (Group 1 mice), IMP321 (Group 2 mice), IMP321 and Carboplatin (Group 3 mice), Carboplatin alone (Group 4 mice), IMP321 and Oxaliplatin (Group 5 mice), or Oxaliplatin alone (Group 6 mice) according to the following schedule: • Group 1 (10 mice): negative control: PBS s.c. injection at D7, D11, D14, D18, D21 and D25; • Group 2 (10 mice): IMP321 s.c. injection (50 μg, 1.9 mg/m) at D7, D11, D14, D18, D21 and D25; • Group 3 (9 mice): IMP321 s.c. injection (50 μg, 1.9 mg/ml) at D7, D11, D14, D18, D21 and D25, plus Carboplatin i.p. injection (288 μg, 16 mg/kg) at D6, D10, D13 and D17; • Group 4 (10 mice): Carboplatin i.p. injection (288 μg, 16 mg/kg) at D6, D10, D13 and D17; • Group 5 (10 mice): IMP321 s.c. injection (50 μg, 1.9 mg/m) at D7, D11, D14, D18, D21 and D25, plus Oxaliplatin i.p. injection (54 μg, 3 mg/kg) at D6 and D10; • Group 6 (10 mice): Oxaliplatin i.p. injection (54 μg, 3 mg/kg) at D6 and D10.
Tumour growth was monitored twice a week by measuring two perpendicular tumor diameters using calipers. […] Tumour size means the cross-sectional area in mm^2.

The test system of assay [3] is Mouse colon 38 (C38) tumor fragments. Kind of assay: C38 colon adenocarcinoma tumor model (Example 4). The note with it: C38 fragments s.c. in C57BL/6 mice; oxaliplatin 5 mg/kg IV Q7Dx4; IMP321 20 μg SC Q7Dx4, day after oxaliplatin; FIG. 4A.
Method: The effect of combined treatment with the LAG-3 derivative IMP321 (also referred to as hLAG-3Ig) and oxaliplatin in the C38 colon adenocarcinoma tumor model was evaluated. In this model, tumor fragments are surgically implanted subcutaneously.
Mouse colon 38 (C38) tumor fragments were obtained frozen from the Division of Cancer Treatment, Tumor Repository, NCI (Frederick, MD, USA). The C38 fragments were stored frozen in DMSO/SVF/RPMI 1640 medium (10/10/80) in liquid nitrogen until use. The fragments were thawed at 37° C. for 5 min, rinsed twice in RPMI 1640 medium before subcutaneous (SC) implantation in mice. The C38 tumors were serially transplanted in C57Bl/6 mice.
Small C38 tumor fragments (20-30 mg) were subcutaneously implanted in the right flank of 12 C57BL/6 mice. When tumor sizes reached 500-1000 mm^3, tumors were surgically excised and small C38 tumor fragments (20-30 mg) were subcutaneously implanted in the right flank of recipient C57BL/6 mice.
Treatment started when the tumors reached a mean volume of 200-300 mm^3. […]
The subject of assay [4] is lymphoma cell line EL4. Kind of assay: Murine syngeneic skin tumour model, EL4 (Example 2). Format: in vivo. The note with it: EL4 s.c. in C57Bl/6 mice; IMP321 50 μg s.c. D7-D24; Carboplatin 16 mg/kg i.p. D6, D10, D13, D17; FIG. 2. How it is done: as §1
The minimum tumorigenic dose (MTD) of tumour cells (5×10^5 cells) was implanted by s.c. injection in the right flank of C57Bl/6 mice (5 weeks old) at Day 0. The mice were injected with phosphate buffered saline (PBS) (Group 1 mice), IMP321 (Group 2 mice), IMP321 and Carboplatin (Group 3 mice), or Carboplatin alone (Group 4 mice) according to the following schedule: • Group 1 (8 mice): negative control: PBS s.c. injection at D7, D11, D14, D19, D21 and D24; • Group 2 (8 mice): IMP321 s.c. injection (50 μg, 3.96 mg/ml) at D7, D11, D14, D19, D21 and D24; • Group 3 (8 mice): IMP321 s.c. injection (50 μg, 3.96 mg/m) at D7, D11, D14, D19, D21 and D24, plus Carboplatin i.p. injection (288 μg, 16 mg/kg) at D6, D10, D13 and D17; • Group 4 (8 mice): Carboplatin i.p. injection (288 μg, 16 mg/kg) at D6, D10, D13 and D17.
Tumour growth was monitored twice a week by measuring two perpendicular tumor diameters using calipers. Tumour size means the cross-sectional area in mm^2.

Structures can show the parent of a compound that is named as a salt.

As to `CC[C@@]1(O)C(=O)OCc2c1cc1n(c2=O)Cc2cc3c(CN(C)C)c(O)ccc3nc2-1` [topotecan, (S)-10-[(dimethylamino)methy]-4-ethyl-4,9-dihydroxy-1H-pyrano[3′,4′:6,7]indolizino[1,2-b] quinoline-3,14(4H,12H)-dione monohydrochloride], in assay [1], the “effect on tumour growth (tumour size, cross-sectional area)” value (from here on “effect on tumour growth”) was “some effect on reducing tumor growth”.
Regarding `O=C1[O][Pt]2([NH][C@@H]3CCCC[C@H]3[NH]2)[O]C1=O` [Oxaliplatin, [(1R,2R)-cyclohexane-1,2-diamine](ethanedioato-O,O′)platinum(II)], the “effect on tumour growth” value in assay [2] is given as “had an effect”. For the same molecule, the “effect on delaying tumor growth” value in assay [3] is on record as “a slight effect”.
`[NH2][Pt]1([NH2])[O]C(=O)C2(CCC2)C(=O)[O]1` [carboplatin, cis-diammine(cyclobutane-1,1-dicarboxylate-O,O′)platinum(I)]: the “effect on tumour growth” value in assay [4] is “very little effect, if any”; in assay [2] it was “some effect”.

B1: IMP321: recombinant soluble human LAG-3Ig fusion protein, 200-kDa dimer: extracellular domain of hLAG-3 fused to human IgG1 Fc (protein)
chain: LQPGAEVPVVWAQEGAPAQLPCSPTIPLQDLSLLRRAGVTWQHQPDSGPPAAAPGHPLAPGPHPAAPSSWGPRPRRYTVLSVGPGGLRSGRLPLQPRVQLDERGRQRGDFSLWLRPARRADAGEYRAAVHLRDRALSCRLRLRLGQASMTASPPGSLRASDWVILNCSFSRPDRPASVHWFRNRGQGRVPVRESPHHHLAESFLFLPQVSPMDSGPWGCILTYRDGFNVSIMYNLTVLGLEPPTPLTVYAGAGSRVGLPCRLPAGVGTRSFLTAKWTPPGGGPDLLVTGDNGDFTLRLEDVSQAQAGTYTCHIHLQEQQLNATVTLAIITVTPKSFGSPGSLGKLLCEVTPVSGQERFVWSSLDTPSQRSFSGPWLEAQEAQLLSQPWQCQLYQGERLLGAAVYFTELSSPG
modifications: left off: small tags and cut ends; a dimerising Fc or GST
notes: recombinant soluble human LAG-3Ig fusion protein, 200-kDa dimer: extracellular domain of hLAG-3 fused to human IgG1 Fc
On to B1, for which the “effect on tumour growth” value in assay [4] is reported as “no effect on tumour growth”; in assay [2], “little, if any effect”; in assay [1], “no effect on tumour growth”. For the same molecule, the “effect on delaying tumor growth” value in assay [3] was “no effect on delaying tumor growth”.
